Results reported in patent publication US10160986B2, “Chemoenzymatic synthesis of heparin and heparan sulfate analogs” (The Regents of the University of California, priority 2011, dated 2018).
Read-outs that look alike come from different tables or passages of the source.

Columns and labels:
[1] = molecular target: NahK_ATCC15697 (Bifidobacterium longum, UniProt B7GN78); test: Substrate specificity CE assay, NahK_ATCC15697; format: biochemical, Bifidobacterium infantis
Method: (§1) Substrates specificity assays. GlcNAc, GalNAc, and their derivatives (1 mM) were used as substrates in the presence of ATP (1 mM) and MgCl2 (5 mM) in a Tris-HCl buffer (pH 8.0, 200 mM) to analyze the substrate specificity of NahKs. Two concentrations (0.75 μM or 15 μM) of each NahK were used and the reactions were allowed to proceed for 10 min (for 0.75 μM NahK) or 30 min (for 15 μM NahK) at 37° C. […] All other conditions were the same as for GlcNAc, GalNAc, and their derivatives.
(§2) Capillary electrophoresis (CE) assays. Based on the detection of ADP and ATP in the reaction mixture by a UV detector, a capillary electrophoresis-based method was developed to directly measure the formation of ADP and N-acetylhexosamine-1-phosphate from ATP and N-acetylhexosamine for characterizing the activities of NahKs.

[2] = molecular target: NahK_ATCC55813 (Bifidobacterium longum subsp. longum, UniProt E8MF12, D7V/R348H); format: biochemical; design: made in house; host or cells: E. coli BL21(DE3)
Method: as §1, §2

[3] = system: NahK; test: Kinase reaction monitored by CE (ATP to ADP), NahK; format: biochemical, Bifidobacterium infantis; settings: monosaccharide 15 mM, ATP 18 mM, 37° C.
Method: Capillary electrophoresis (CE) and thin-layer chromatograph (TLC) assays for kinase reactions. Kinase reactions were carried out at 37° C. in a total volume of 30 μL in Tris-HCl buffer (100 mM, pH 8.0) containing monosaccharide (15 mM), ATP (18 mM, 1.2 eq.), MgCl2 (10 mM), and a kinase (6 μg). These conditions were similar to those used for preparative-scale synthesis. After 1 hr, 4 hr, and 24 hr, an aliquot of 8 μL was withdrawn from each reaction mixture, boiled in a water bath for 5 min and stored at −20° C. until being analyzed by capillary electrophoresis (CE) and TLC. For TLC analysis, 0.5 μL of each sample was directly spotted on TLC plates, developed using suitable developing solvents, and stained with anisaldehyde sugar stain. For CE analysis, 1.5 μL of each sample was diluted into 30 μL and subjected to CE analysis as described above for pH profile studies.
General methods for compound purification and characterization. Chemicals were purchased and used without further purification. ^1H NMR and ^13C NMR spectra were recorded on a Varian Mercury 600 NMR spectrometer. High resolution electrospray ionization (ESI) mass spectra were obtained in negative mode using Thermo Electron LTQ-Orbitrap mass spectrometer. Silica gel 60 Å (Sorbent Technologies) was used for flash column chromatography. Thin-layer chromatography (TLC) was performed on silica gel plates 60 GF254 (Sorbent Technologies) using anisaldehyde sugar stain for detection. Gel filtration chromatography was performed with a column (100 cm×2.5 cm) packed with BioGel P-2 Fine resins (Bio-Rad). GlcN3 (T6-9) (Lau K, Thon, V, Yu H, Ding L, Chen Y, Muthana M M, Wong D, Huang R, and Chen X. Chem. Commun. 2010, 46, 6066-6068), ManF (T6-11) (Burkart M D, Zhang Z, Hung S-C, and Wong C-H. J. Am. Chem. Soc. 1997, 119, 11743-11746; Cao H, Li Y, Lau K, Muthana S, Yu H, Cheng J, Chokhawala H A, Sugiarto G, Zhang L, and Chen X. Org. Biomol. Chem. 2009, 7, 5137-5145), GalN3 (T6-4) and ManN3 (T6-14) (Yu H, Yu H, Karpel R, cand Chen X. Bioorg. Med. Chem. 2004, 12, 6427-6435) were previously synthesized using reported methods. NahK_ATCC15697, EcGalK, SpGalK, and PmPpA were overexpressed as described previously.

[4] = Glc, Gal, Man, ManNAc and derivatives, enzyme 15, 37° C. for 30 min (Table 3)
[5] = 0.75 μM enzyme, 10 min at 37° C., substrate 1 mM, ATP 1 mM
[6] = 15 μM enzyme, 30 min at 37° C., substrate 1 mM, ATP 1 mM (Table 2)
[7] = Glc, Gal, Man, ManNAc and derivatives, enzyme 15, 37° C. for 30 min (Table 3), listed as drawing 49

| Structure (SMILES) | Percentage Conversion [1, 4] | Percentage Conversion [2, 4] | Percentage Conversion [1, 5] | Percentage Conversion [1, 6] | Percentage Conversion [2, 5] | Percentage Conversion [2, 6] | other results |
| --- | --- | --- | --- | --- | --- | --- | --- |
| O=C(CO)NC1C(O)OC(CO)[C@@H](O)C1O (some centres unmarked) | 7.6 ± 0.1% | 5.4 ± 0.2% | – | – | – | – | – |
| O=C(CF)NC1C(O)OC(CO)[C@@H](O)C1O (some centres unmarked) | 12.0 ± 0.1% | 9.1 ± 0.2% | – | – | – | – | – |
| COCC(=O)NC1C(O)OC(CO)[C@@H](O)C1O (some centres unmarked) | 12.0 ± 0.4% | 7.4 ± 0.3% | – | – | – | – | – |
| O=S(=O)(O)NC1C(O)OC(CO)[C@@H](O)C1O (some centres unmarked) [2-N-sulfo-glucose] | – | – | 0% | 6.4 ± 0.2% | 0% | 4.0 ± 0.1% | – |
| NC1C(O)OC(CO)[C@@H](O)[C@@H]1O (some centres unmarked) [2-amino-2-deoxy-glucose] | – | – | 0% | 15.0 ± 0.1% | 0% | 8.4 ± 0.1% | ATP Conversion ([3]; 1 hr): 11.9%; ATP Conversion ([3]; 4 hr): 28.0%; ATP Conversion ([3]; 24 hr): 67.1% |
| OCC1OC(O)C[C@@H](O)[C@@H]1O (some centres unmarked) [2-deoxy glucose] | 44.8 ± 0.2% | 28.4 ± 0.1% | – | – | – | – | ATP Conversion ([3]; 1 hr): 36.8%; ATP Conversion ([3]; 4 hr): 69.6%; ATP Conversion ([3]; 24 hr): 79.4% |
| COC1C(O)OC(CO)[C@@H](O)C1O (some centres unmarked) [2Me-Man] | 9.4 ± 0.5% | 0% | – | – | – | – | – |
| [N-]=[N+]=NC1C(O)OC(CO)[C@@H](O)C1O (some centres unmarked) [2N3-Man] | 53.3 ± 0.1% | 40.2 ± 0.2% | – | – | – | – | ATP Conversion ([3]; 1 hr): 34.9%; ATP Conversion ([3]; 4 hr): 65.9%; ATP Conversion ([3]; 24 hr): 76.4% |
| [N-]=[N+]=N[C@@H](C=O)[C@@H](OS(=O)(=O)O)[C@H](O)[C@H](O)CO [3-O-sulfo-2-azido-2-deoxy glucose] | – | – | 0% | 4.9 ± 0.1% | 0% | 3.9 ± 0.1% | – |
| OCC1CC(O)C(O)C(O)O1 (centres unmarked) [4-deoxyMan] | 37.1 ± 0.2% | 23.9 ± 0.1% | – | – | – | – | – |
| [N-]=[N+]=NC1C(O)OC(COS(=O)(=O)O)[C@@H](O)[C@@H]1O (some centres unmarked) [6-O-sulfo-2-azido-2-deoxy glucose] | – | – | 0% | 6.9 ± 0.1% | 0% | 4.4 ± 0.1% | – |
| CC(=O)NC1C(O)OC(COS(=O)(=O)O)[C@@H](O)C1O (some centres unmarked) [6-O-sulfo-GlcNAc] | – | – | 0% | 11.7 ± 0.2% | 0% | 6.6 ± 0.1% | – |
| O=C(NC1C(O)OC(COS(=O)(=O)O)[C@@H](O)C1O)C(F)(F)F (some centres unmarked) [6-O-sulfo-N-trifluoroacetyl glucosamine] | – | – | 0% | 7.2 ± 0.1% | 0% | 3.3 ± 0.2% | – |
| CC(=O)NC1C(O)OC(CN=[N+]=[N-])[C@@H](O)C1O (some centres unmarked) [6-azido-6-deoxy-GlcNAc] | – | – | 0% | 37.2 ± 0.5% | 0% | 23.4 ± 0.1% | – |
| CC(=O)NC1C(O)OC(C)[C@@H](O)C1O (some centres unmarked) [6-deoxy-GlcNAc] | – | – | 4.4 ± 1.2% | 41.8 ± 0.3% | 2.1 ± 0.2% | 36.3 ± 0.3% | – |
| [N-]=[N+]=NCC(=O)NC1C(O)OC(CO)[C@H](O)C1O (some centres unmarked) [GalNAcN3] | – | – | 9.9 ± 0.6% | – | 21.0 ± 1.2% | – | – |
| CCCC(=O)NC1C(O)OC(CO)[C@H](O)C1O (some centres unmarked) [GalNBu] | – | – | 12.1 ± 0.3% | – | 24.0 ± 0.1% | – | – |
| O=C(NC1C(O)OC(CO)[C@H](O)C1O)c1ccccc1 (some centres unmarked) [GalNBz] | – | – | 0% | 62.2 ± 1.0% | 0% | 51.9 ± 0.5% | – |
| O=C(NC1C(O)OC(CO)[C@H](O)C1O)C(F)(F)F (some centres unmarked) [GalNTFA] | – | – | 11.2 ± 1.6% | – | 21.8 ± 0.2% | – | – |
| CC(=O)NC1C(O)OC(CO)[C@@H](O)[C@@H]1O (some centres unmarked) [GlcNAc, N-acetylglucosamine] | – | – | 35.4 ± 0.1% | – | 42.3 ± 0.2% | – | ATP Conversion ([3]; 1 hr): 72.6%; ATP Conversion ([3]; 4 hr): 84.6%; ATP Conversion ([3]; 24 hr): 85.5% |
| [N-]=[N+]=NCC(=O)NC1C(O)OC(CO)[C@@H](O)C1O (some centres unmarked) [GlcNAcN3] | – | – | 11.5 ± 1.0% | – | 22.8 ± 0.4% | – | – |
| CCCC(=O)NC1C(O)OC(CO)[C@@H](O)C1O (some centres unmarked) [GlcNBu] | – | – | 20.9 ± 0.6% | – | 35.0 ± 2.0% | – | – |
| O=C(NC1C(O)OC(CO)[C@@H](O)C1O)c1ccccc1 (some centres unmarked) [GlcNBz] | – | – | 10.3 ± 0.4% | – | 5.2 ± 0.2% | – | – |
| O=C(NC1C(O)OC(CO)[C@@H](O)C1O)C(F)(F)F (some centres unmarked) [GlcNTFA] | – | – | 10.7 ± 0.9% | – | 16.2 ± 0.9% | – | – |
| OCC1OC(O)C(O)[C@@H](O)[C@@H]1O (some centres unmarked) [Man, mannose] | – | – | – | – | – | – | Percentage Conversion [1, 7]: 68.0 ± 1.7%; ATP Conversion ([3]; 1 hr, listed as T6-11 Man): 29.6%; ATP Conversion ([3]; 4 hr, listed as T6-11 Man): 69.3%; ATP Conversion ([3]; 24 hr, listed as T6-11 Man): 75.1%; Percentage Conversion [2, 7]: 37.1 ± 0.4% |
| COCC1OC(O)C(NC(C)=O)[C@@H](O)[C@@H]1O (some centres unmarked) [N-acetyl-6-O-methylmannosamine] | 32.6 ± 0.1% | 28.9 ± 0.1% | – | – | – | – | – |
| CC(=O)N[C@@H]1C(O)O[C@H](CO)[C@@H](O)[C@@H]1O (some centres unmarked) [N-acetylmannosamine] | 8.9 ± 0.1% | 5.5 ± 0.1% | – | – | – | – | ATP Conversion ([3]; 1 hr): 11.4%; ATP Conversion ([3]; 4 hr): 26.1%; ATP Conversion ([3]; 24 hr): 73.8% |
| [N-]=[N+]=NCC(=O)N[C@@H]1C(O)O[C@H](CO)[C@@H](O)[C@@H]1O (some centres unmarked) [N-azidoacetylmannosamine] | 20.3 ± 0.3% | 18.6 ± 0.4% | – | – | – | – | – |
| N[C@@H]1C(O)O[C@H](CO)[C@@H](O)[C@@H]1O (some centres unmarked) [T6-13 ManNH2, mannosamine] | – | – | – | – | – | – | ATP Conversion ([3]; 1 hr): 10.3%; ATP Conversion ([3]; 4 hr): 22.8%; ATP Conversion ([3]; 24 hr): 58.0% |
